Target: recombinant human SAE enzyme (Homo sapiens (Human), UniProt Q9UBT2)
Assay: SAE HTRF enzyme assay
Format: biochemical
In short: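 Sumoylation of Ubc9-GST by SAE was followed at low ATP (0.5 μM), pH 7.5, 24° C. for 105 min. Product was detected by HTRF with antibody pairs against Flag and GST tags.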

recombinant human SAE enzyme, sequence (Q9UBT2 whole entry): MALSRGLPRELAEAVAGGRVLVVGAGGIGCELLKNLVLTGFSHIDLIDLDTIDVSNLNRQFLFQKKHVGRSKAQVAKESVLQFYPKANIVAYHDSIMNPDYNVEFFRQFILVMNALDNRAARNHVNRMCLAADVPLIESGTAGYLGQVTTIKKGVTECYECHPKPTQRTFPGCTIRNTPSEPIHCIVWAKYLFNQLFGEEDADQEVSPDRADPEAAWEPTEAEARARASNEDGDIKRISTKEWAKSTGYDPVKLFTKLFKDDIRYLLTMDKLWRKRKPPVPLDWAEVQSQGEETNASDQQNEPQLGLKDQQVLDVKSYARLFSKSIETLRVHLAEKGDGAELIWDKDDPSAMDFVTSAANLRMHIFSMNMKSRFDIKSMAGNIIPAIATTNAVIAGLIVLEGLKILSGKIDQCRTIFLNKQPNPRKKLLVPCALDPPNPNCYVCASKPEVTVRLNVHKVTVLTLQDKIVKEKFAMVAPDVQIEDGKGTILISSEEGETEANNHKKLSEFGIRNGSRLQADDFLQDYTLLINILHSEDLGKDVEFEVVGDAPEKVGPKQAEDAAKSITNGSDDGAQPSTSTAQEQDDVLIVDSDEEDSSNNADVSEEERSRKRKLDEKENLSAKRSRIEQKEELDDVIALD
recombinant human SAE enzyme, sequence (Q9UBE0 whole entry partner): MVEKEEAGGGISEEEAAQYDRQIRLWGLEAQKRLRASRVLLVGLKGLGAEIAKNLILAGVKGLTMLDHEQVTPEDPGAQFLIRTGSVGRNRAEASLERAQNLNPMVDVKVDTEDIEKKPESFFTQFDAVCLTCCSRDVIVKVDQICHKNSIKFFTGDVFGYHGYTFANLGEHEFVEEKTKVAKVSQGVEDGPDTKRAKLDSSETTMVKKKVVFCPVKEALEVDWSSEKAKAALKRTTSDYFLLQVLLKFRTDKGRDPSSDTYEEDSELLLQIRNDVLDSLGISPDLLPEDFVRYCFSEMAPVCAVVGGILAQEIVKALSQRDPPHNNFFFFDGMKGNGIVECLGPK

Cc1sc(C(=O)c2cncnc2N[C@@H]2C[C@H](COS(N)(=O)=O)[C@@H](O)C2)cc1[C@H]1SCc2ccc(Cl)cc21 (racemic) [I-359b, [(1RS,2SR,4RS)-4-[5-[4-[(1S)-6-chloro-1,3-dihydro-2-benzothiophene-1-yl]-5-methyl-thiophene-2-carbonyl]pyrimidin-4-yl]amino]-2-hydroxy-cyclopentyl]methyl sulfamate]
Percent Inhibition (SAE inhibition at compound concentration 0.111 μM): 95%
IC50 (SAE inhibition, class symbols, legend in nM): < 10 nM

C[C@](O)(c1csc(C(=O)c2cncnc2N[C@@H]2C[C@H](COS(N)(=O)=O)[C@@H](O)[C@H]2O)c1)c1cccc(Br)n1 (single isomer, unassigned) [I-1a, [(1R,2R,3S,4R)-4-{[5-({4-[(1S)-1-(6-bromopyridin-2-yl)-1-hydroxyethyl]-2-thienyl}carbonyl)pyrimidin-4-yl]amino}-2,3-dihydroxycyclopentyl]methyl sulfamate or [(1R,2R,3S,4R)-4-{[5-({4-[(1R)-1-(6-bromopyridin-2-yl)-1-hydroxyethyl]-2-thienyl}carbonyl)pyrimidin-4-yl]amino}-2,3-dihydroxycyclopentyl]methyl sulfamate]
Percent Inhibition (Concentration 0.111 μM): 96
IC50 (class symbols A/B/C): < 10 nM

C[C@](O)(c1csc(C(=O)c2cncnc2N[C@@H]2C[C@H](COS(N)(=O)=O)[C@@H](O)[C@H]2O)c1)c1cccc(Br)n1 (single isomer, unassigned) [I-1b, [(1R,2R,3S,4R)-4-{[5-({4-[(1S)-1-(6-bromopyridin-2-yl)-1-hydroxyethyl]-2-thienyl}carbonyl)pyrimidin-4-yl]amino}-2,3-dihydroxycyclopentyl]methyl sulfamate or [(1R,2R,3S,4R)-4-{[5-({4-[(1R)-1-(6-bromopyridin-2-yl)-1-hydroxyethyl]-2-thienyl}carbonyl)pyrimidin-4-yl]amino}-2,3-dihydroxycyclopentyl]methyl sulfamate]
Percent Inhibition (Concentration 0.111 μM): 100
IC50 (class symbols A/B/C): < 10 nM

NS(=O)(=O)OC[C@H]1C[C@@H](Nc2ncncc2C(=O)c2cc([C@H](O)c3cccc(Cl)n3)c(Cl)s2)C[C@@H]1O (single isomer, unassigned) [I-2a, [(1R,2S,4R)-4-{[5-({5-chloro-4-[(S)-(6-chloropyridin-2-yl)(hydroxy)methyl]-2-thienyl}carbonyl)pyrimidin-4-yl]amino}-2-hydroxycyclopentyl]methyl sulfamate or [(1R,2S,4R)-4-{[5-({5-chloro-4-[(R)-(6-chloropyridin-2-yl)(hydroxy)methyl]-2-thienyl}carbonyl)pyrimidin-4-yl]amino}-2-hydroxycyclopentyl]methyl sulfamate]
Percent Inhibition (Concentration 0.111 μM): 99
IC50 (class symbols A/B/C): < 10 nM

NS(=O)(=O)OC[C@H]1C[C@@H](Nc2ncncc2C(=O)c2cc([C@H](O)c3cccc(Cl)n3)c(Cl)s2)C[C@@H]1O (single isomer, unassigned) [I-2b, [(1R,2S,4R)-4-{[5-({5-chloro-4-[(S)-(6-chloropyridin-2-yl)(hydroxy)methyl]-2-thienyl}carbonyl)pyrimidin-4-yl]amino}-2-hydroxycyclopentyl]methyl sulfamate or [(1R,2S,4R)-4-{[5-({5-chloro-4-[(R)-(6-chloropyridin-2-yl)(hydroxy)methyl]-2-thienyl}carbonyl)pyrimidin-4-yl]amino}-2-hydroxycyclopentyl]methyl sulfamate]
Percent Inhibition (Concentration 0.111 μM): 61
IC50 (class symbols A/B/C): 10 to 100 nM

CC(O)(c1cccc(Br)c1)c1csc(C(=O)c2cncnc2N[C@@H]2C[C@H](COS(N)(=O)=O)[C@@H](O)C2)c1 (single isomer, unassigned) [I-3a, [(1R,2S,4R)-4-{[5-({4-[(1R)-1-(3-bromophenyl)-1-hydroxyethyl]-2-thienyl}carbonyl)pyrimidin-4-yl]amino}-2-hydroxycyclopentyl]methyl sulfamate or [(1R,2S,4R)-4-{[5-({4-[(1S)-1-(3-bromophenyl)-1-hydroxyethyl]-2-thienyl}carbonyl)pyrimidin-4-yl]amino}-2-hydroxycyclopentyl]methyl sulfamate]
Percent Inhibition (Concentration 0.111 μM): 92
IC50 (class symbols A/B/C): 10 to 100 nM
